Active and inactive are the calls of the source. The rule behind the calls is not given here.
What was measured:
MV4-11 [1] = experiment: cells; conditions: Homo sapiens, MV4-11, 96 h
Menin [2] = biological target: T1, Menin (Homo sapiens, UniProt O00255); experiment: Inhibition of FAM-probe binding to Menin (unknown origin) after 60 mins by fluorescence polarization competitive binding assay
T1 sequence (O00255 whole entry): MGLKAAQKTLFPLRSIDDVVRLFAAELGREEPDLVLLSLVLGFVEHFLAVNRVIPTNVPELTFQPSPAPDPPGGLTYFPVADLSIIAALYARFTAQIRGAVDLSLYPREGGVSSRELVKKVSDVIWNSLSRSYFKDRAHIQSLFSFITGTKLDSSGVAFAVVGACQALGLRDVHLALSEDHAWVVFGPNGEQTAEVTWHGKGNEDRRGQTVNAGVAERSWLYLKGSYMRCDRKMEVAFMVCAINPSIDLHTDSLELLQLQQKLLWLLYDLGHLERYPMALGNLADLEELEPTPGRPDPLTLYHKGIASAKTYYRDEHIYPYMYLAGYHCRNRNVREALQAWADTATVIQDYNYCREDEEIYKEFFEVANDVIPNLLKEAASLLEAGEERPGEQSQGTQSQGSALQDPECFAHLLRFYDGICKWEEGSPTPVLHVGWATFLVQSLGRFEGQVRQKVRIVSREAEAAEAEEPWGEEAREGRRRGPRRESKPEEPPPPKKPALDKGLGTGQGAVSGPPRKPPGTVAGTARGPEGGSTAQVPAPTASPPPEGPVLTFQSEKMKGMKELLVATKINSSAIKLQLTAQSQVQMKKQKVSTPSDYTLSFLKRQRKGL

Menin [3] = biological target: T1, Menin; experiment: Binding affinity to human Menin expressed in Escherichia coli Rosetta2 (DE3) cells by isothermal titration calorimetry
[4] = Solubility of the compound; assay type: physicochemical
MV4-11 [5] = experiment: Induction of differentiation in human MV4-11 cells assessed as increase in CD11b positive cells at 0.03 to 3 uM after 24 hrs by phycoerythrin staining-based flow cytometric analysis; assay type: functional, cell-based
[6] = biological target: T2, Menin/Histone-lysine N-methyltransferase MLL (Homo sapiens) (UniProt O00255+Q03164); conditions: 100 nM
MV4-11 [7] = experiment: Induction of differentiation in human MV4-11 cells assessed as increase in CD11b positive cells after 48 hrs by phycoerythrin staining-based flow cytometric analysis; assay type: functional, cell-based
Mus musculus [8] = experiment: Downregulation of Hoxa9 expression in tumors of mouse xenografted with human MV411 cells at 50 mg/kg , ip administered daily for 3 days and measured after 6 to 48 hrs by RT-qPCR analysis; assay type: functional, organism-based
[9] = biological target: T2, Menin/Histone-lysine N-methyltransferase MLL (Homo sapiens); conditions: 30 to 300 nM
Mus musculus [10] = experiment: Downregulation of MEIS1 expression in tumors of mouse xenografted with human MV411 cells at 50 mg/kg , ip administered daily for 3 days and measured after 6 to 48 hrs by RT-qPCR analysis; assay type: functional, organism-based
[11] = biological target: T2, Menin/Histone-lysine N-methyltransferase MLL (Homo sapiens); conditions: 100 nM; remark: listed apart in the source
[12] = biological target: T2, Menin/Histone-lysine N-methyltransferase MLL (Homo sapiens); conditions: 30 to 300 nM; remark: listed apart in the source
Menin [13] = biological target: T1, Menin
HL-60 = experiment: Growth inhibition of human HL60 cells after 4 days by WST-8 assay; assay type: functional, cell-based; conditions: HL-60, 96 h
MOLM-13 = experiment: Growth inhibition of human MOLM13 cells after 4 days by WST-8 assay; assay type: functional, cell-based; conditions: MOLM-13, 96 h
Menin [14] = biological target: Menin (Homo sapiens, UniProt O00255); experiment: Inhibition of fluorescent probe binding to Menin (2 to 610 residues containing deletion from 460-519) (unknown origin) after 60 mins by fluorescence polarization competitive binding assay

T2 sequence (Q03164 1-2718 partner limits assumed, one chain of several): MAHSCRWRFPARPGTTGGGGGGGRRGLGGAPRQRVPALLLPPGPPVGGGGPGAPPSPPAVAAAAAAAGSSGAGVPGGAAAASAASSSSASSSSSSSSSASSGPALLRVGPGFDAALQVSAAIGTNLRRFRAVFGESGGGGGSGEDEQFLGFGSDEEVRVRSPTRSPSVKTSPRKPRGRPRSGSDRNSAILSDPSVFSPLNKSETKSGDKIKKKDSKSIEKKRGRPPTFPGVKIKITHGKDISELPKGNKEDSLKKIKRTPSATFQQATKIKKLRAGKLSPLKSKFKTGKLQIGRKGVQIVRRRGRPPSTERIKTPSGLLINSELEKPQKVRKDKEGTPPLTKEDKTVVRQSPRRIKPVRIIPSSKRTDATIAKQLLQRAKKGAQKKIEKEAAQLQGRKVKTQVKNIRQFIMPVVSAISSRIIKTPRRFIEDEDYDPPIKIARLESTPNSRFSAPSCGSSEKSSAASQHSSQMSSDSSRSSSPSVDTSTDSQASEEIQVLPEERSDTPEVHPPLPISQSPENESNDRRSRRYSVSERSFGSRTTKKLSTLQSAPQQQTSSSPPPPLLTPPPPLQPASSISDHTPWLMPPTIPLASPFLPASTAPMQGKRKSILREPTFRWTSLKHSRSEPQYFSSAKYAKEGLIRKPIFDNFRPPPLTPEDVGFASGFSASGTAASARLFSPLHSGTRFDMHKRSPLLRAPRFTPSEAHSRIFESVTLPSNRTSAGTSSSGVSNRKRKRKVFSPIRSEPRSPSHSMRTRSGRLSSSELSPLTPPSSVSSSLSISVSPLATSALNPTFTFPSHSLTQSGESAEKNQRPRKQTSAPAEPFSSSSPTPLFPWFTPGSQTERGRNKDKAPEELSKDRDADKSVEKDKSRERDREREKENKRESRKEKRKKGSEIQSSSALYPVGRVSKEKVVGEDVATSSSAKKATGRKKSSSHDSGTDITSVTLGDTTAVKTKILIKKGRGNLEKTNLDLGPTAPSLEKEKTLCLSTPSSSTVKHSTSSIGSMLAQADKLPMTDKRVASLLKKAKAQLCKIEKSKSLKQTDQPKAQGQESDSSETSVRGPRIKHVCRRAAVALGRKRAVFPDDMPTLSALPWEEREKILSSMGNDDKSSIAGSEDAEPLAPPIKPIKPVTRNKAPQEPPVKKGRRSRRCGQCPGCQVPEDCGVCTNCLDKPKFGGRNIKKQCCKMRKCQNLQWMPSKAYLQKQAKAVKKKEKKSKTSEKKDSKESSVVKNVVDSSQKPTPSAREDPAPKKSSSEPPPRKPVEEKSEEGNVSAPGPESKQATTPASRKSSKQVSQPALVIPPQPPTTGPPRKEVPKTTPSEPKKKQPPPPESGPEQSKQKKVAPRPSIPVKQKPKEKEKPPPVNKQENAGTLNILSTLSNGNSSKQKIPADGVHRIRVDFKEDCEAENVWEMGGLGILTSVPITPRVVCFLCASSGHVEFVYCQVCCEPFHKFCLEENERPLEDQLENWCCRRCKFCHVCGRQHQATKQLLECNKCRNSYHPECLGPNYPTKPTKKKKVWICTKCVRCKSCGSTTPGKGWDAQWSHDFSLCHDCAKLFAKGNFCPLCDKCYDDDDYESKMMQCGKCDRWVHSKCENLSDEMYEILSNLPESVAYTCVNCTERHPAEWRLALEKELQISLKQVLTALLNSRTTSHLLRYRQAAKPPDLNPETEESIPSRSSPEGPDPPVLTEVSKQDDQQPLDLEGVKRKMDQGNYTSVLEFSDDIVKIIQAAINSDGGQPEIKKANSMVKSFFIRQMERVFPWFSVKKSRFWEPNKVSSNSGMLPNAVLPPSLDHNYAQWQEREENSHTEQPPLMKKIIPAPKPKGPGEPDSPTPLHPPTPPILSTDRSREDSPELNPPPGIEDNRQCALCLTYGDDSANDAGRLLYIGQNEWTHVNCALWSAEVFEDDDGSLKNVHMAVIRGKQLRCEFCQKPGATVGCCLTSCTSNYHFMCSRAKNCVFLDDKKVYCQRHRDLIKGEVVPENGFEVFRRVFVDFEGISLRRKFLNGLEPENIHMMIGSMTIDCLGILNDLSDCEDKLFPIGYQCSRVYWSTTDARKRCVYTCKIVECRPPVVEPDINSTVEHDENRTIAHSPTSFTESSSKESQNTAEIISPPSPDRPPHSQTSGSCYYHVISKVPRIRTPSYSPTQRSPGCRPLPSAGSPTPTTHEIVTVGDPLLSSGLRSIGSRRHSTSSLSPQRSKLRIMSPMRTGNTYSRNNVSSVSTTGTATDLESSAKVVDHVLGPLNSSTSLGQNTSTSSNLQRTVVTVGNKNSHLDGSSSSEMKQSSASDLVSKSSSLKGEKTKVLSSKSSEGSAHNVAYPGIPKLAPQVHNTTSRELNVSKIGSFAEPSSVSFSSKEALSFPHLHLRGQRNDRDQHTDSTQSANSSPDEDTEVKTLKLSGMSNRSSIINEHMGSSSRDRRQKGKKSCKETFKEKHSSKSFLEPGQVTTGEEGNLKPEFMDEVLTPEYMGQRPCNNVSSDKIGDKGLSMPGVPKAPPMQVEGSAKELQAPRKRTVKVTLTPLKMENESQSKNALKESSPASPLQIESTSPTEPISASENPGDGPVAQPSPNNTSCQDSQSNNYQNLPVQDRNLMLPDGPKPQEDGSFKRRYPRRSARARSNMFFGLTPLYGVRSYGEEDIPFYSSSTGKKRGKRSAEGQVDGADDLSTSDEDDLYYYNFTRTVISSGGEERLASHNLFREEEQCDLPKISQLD
T2 sequence (Q03164 2719-3969 partner limits assumed, one chain of several): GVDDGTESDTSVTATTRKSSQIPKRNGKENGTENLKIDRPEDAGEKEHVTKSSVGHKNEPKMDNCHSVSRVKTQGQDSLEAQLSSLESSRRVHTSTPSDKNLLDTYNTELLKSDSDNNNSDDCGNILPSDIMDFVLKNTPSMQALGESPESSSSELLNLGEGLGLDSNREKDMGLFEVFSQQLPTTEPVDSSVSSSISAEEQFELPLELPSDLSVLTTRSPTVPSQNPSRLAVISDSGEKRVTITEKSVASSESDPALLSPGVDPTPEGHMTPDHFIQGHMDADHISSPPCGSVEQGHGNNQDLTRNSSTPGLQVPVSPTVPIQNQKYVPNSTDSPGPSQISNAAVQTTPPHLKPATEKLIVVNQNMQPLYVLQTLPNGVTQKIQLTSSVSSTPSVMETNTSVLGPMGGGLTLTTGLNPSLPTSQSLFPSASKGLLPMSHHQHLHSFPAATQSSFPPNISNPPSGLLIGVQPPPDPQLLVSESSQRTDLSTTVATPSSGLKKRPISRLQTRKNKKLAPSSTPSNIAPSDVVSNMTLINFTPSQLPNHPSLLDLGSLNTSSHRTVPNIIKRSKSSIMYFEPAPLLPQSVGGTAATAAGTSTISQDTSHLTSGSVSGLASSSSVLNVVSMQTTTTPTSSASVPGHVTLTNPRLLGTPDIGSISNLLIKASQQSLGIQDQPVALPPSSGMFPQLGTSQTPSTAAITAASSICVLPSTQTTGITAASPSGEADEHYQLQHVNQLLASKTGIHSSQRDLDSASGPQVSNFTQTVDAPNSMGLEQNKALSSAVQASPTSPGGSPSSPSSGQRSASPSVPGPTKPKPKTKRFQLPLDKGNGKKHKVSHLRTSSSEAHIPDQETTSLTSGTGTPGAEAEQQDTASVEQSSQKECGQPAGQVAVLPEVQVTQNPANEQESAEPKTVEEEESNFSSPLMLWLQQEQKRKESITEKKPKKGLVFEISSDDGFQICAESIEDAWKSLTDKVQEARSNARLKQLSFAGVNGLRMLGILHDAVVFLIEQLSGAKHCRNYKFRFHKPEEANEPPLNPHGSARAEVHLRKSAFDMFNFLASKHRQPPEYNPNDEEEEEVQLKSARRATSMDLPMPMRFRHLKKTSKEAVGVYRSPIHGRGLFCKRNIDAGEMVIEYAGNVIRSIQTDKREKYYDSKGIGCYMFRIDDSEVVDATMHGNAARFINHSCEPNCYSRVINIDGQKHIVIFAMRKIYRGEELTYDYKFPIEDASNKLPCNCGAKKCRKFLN

Structure (SMILES) | IC50 (MV4-11 [1]) | IC50 (Menin [2]) | Ki (Menin [2]) | also measured
CC(=O)N[C@H]1CCC[C@@H]1[C@](C#N)(c1ccccc1)C1CCN(CC2CN(c3ccc(C#N)cc3)C2)CC1 (racemic) | 3900 nM | 102 nM | 32 nM | –
O=S(=O)(c1ccc(N2CC(CN3CCC(C4(C5CCCC5)NCCc5ccccc54)CC3)C2)cc1)C1CCC1 (configuration not stated) | 1700 nM | – | 11 nM | –
CCC(=O)O[C@H]1CCC[C@@H]1[C@](C#N)(c1ccccc1)C1CCN(CC2CN(c3ccc(C#N)cc3)C2)CC1 (mixture of isomers) | 2200 nM | 33 nM | 9.7 nM | –
CS(=O)(=O)c1ccc(N2CC(CN3CCC(C4(C5CCCC5)NCCc5ccccc54)CC3)C2)cc1 (configuration not stated) | 4430 nM | 143 nM | 45 nM | –
CC(C)S(=O)(=O)c1ccc(N2CC(CN3CCC(C4(C5CCCC5)NCCc5ccccc54)CC3)C2)cc1 (configuration not stated) | 1100 nM | – | 21 nM | –
CC(C)N1Cc2ccccc2C(C2CCCC2)(C2CCN(CC3CN(c4ccc(S(=O)(=O)c5ccncc5)cc4)C3)CC2)C1 (configuration not stated) | 910 nM | – | 1.4 nM | –
O=S(=O)(c1ccc(N2CC(CN3CCC(C4(C5CCCC5)NCCc5ccccc54)CC3)C2)cc1)C1CCCCC1 (configuration not stated) | 1100 nM | 10 nM | 2.4 nM | –
N#Cc1cc2cc(CN3CCC(Nc4ncnc5sc(CC(F)(F)F)cc45)CC3)c(O)cc2n1Cc1cn[nH]c1 | – | – | – | Kd (Menin [3]): 10 nM
O=S(=O)(c1ccncc1)c1ccc(N2CC(CN3CCC(C4(C5CCCC5)CN(Cc5ccncc5)Cc5ccccc54)CC3)C2)cc1 (configuration not stated) | 1330 nM | – | 361 nM | –
CCS(=O)(=O)c1ccc(N2CC(CN3CCC(C4(C5CCCC5)NCCc5ccccc54)CC3)C2)cc1 (configuration not stated) | 2100 nM | 34 nM | 10 nM | –
N#Cc1ccc(OCCCCN2CCC(C3(C4CCCC4)NCCc4ccccc43)CC2)cc1 (configuration not stated) | 500 nM | 5000 nM | 1300 nM | –
CC(=O)O[C@H]1CCC[C@@H]1[C@](C#N)(c1ccccc1)C1CCN(CC2CN(c3ccc(C#N)cc3)C2)CC1 (mixture of isomers) | 1700 nM | 40 nM | 12 nM | –
Cc1c(CN2CCC(Nc3ncnc4sc(CC(F)(F)F)cc34)CC2)ccc2c1cc(C#N)n2Cc1cn[nH]c1 | – | – | – | Kd (Menin [3]): 10 nM
N#Cc1ccc(OCCN2CCC(C3(C4CCCC4)NCCc4ccccc43)CC2)cc1 (configuration not stated) | 1800 nM | 21200 nM | 5500 nM | –
O=S(=O)(c1ccncc1)c1ccc(N2CC(CN3CCC(C4(C5CCCC5)NCCc5ccccc54)CC3)C2)cc1 (configuration not stated) | 1300 nM | 17 nM | 4.6 nM | solubility [4]: Soluble
O=S(=O)(c1ccc(N2CC(CN3CCC(C4(C5CCCC5)NCCc5ccccc54)CC3)C2)cc1)C1CCCC1 (configuration not stated) | 900 nM | 17 nM | 4.6 nM | –
N#Cc1ccc(N2CCC(N3CCC(C4(C5CCCC5)NCCc5ccccc54)CC3)CC2)cc1 (configuration not stated) | 6330 nM | 650 nM | 207 nM | –
CNC(=O)O[C@H]1CCC[C@@H]1[C@]1(C2CCN(CC3CN(c4ccc(S(=O)(=O)c5ccncc5)cc4)C3)CC2)CN(C)Cc2ccccc21 (mixture of isomers) | – | 5 nM | < 1 nM | Activity (MV4-11 [5]): Active; inhibition [6]: Active; Activity (MV4-11 [7]): Dose-dependent effect; Activity (Mus musculus [8]): Active; inhibition [9]: Active; Activity (Mus musculus [10]): Active; inhibition [11]: Active; inhibition [12]: Active; Kd (Menin [13]): 1.4 nM
CNC(=O)O[C@H]1CCC[C@@H]1[C@](C#N)(c1ccccc1)C1CCN(CC2CN(c3ccc(C#N)cc3)C2)CC1 (mixture of isomers) | 300 nM | 11 nM | 2.7 nM | –

Structure (SMILES) | IC50 (MV4-11 [1]) | IC50 (Menin [2]) | Ki (Menin [2]) | also measured
N#Cc1ccc(N2CCCC(CN3CCC(C4(C5CCCC5)NCCc5ccccc54)CC3)C2)cc1 (configuration not stated) | – | 6600 nM | 2130 nM | –
CCO[C@H]1CCC[C@@H]1[C@](C#N)(c1ccccc1)C1CCN(CC2CN(c3ccc(C#N)cc3)C2)CC1 (racemic) | 4300 nM | 5400 nM | 1700 nM | –
CCN1Cc2ccccc2C(C2CCCC2)(C2CCN(CC3CN(c4ccc(S(=O)(=O)c5ccncc5)cc4)C3)CC2)C1 (configuration not stated) | 840 nM | – | 1 nM | –
N#Cc1ccc(N2CC(CN3CCC(C4(C5CCCC5)NCCc5ccccc54)CC3)C2)cc1 (configuration not stated) | 1300 nM | – | 11 nM | –
CN1Cc2ccccc2C(C2CCCC2)(C2CCN(CC3CN(c4ccc(S(=O)(=O)c5ccncc5)cc4)C3)CC2)C1 (configuration not stated) | – | 11 nM | – | IC50 (HL-60): 2500 nM; IC50 (MOLM-13): 4.3 µM
COC(=O)N[C@H]1CCC[C@@H]1[C@](C#N)(c1cccc(F)c1)C1CCN(CC2CN(c3ccc(S(=O)(=O)C4CN(C(=O)/C=C/CN(C)C)C4)cc3)C2)CC1 | – | – | – | IC50 (Menin [14]): 3 nM
CCCC(=O)O[C@H]1CCC[C@@H]1[C@](C#N)(c1ccccc1)C1CCN(CC2CN(c3ccc(C#N)cc3)C2)CC1 (mixture of isomers) | 10700 nM | 1100 nM | 350 nM | –
O=S(=O)(c1ccc(N2CC(CN3CCC(C4(C5CCCC5)NCCc5ccccc54)CC3)C2)cc1)C1CC1 (configuration not stated) | 1200 nM | – | 7 nM | –
O=S(=O)(c1ccncc1)c1ccc(N2CC(CN3CCC(C4(C5CCCC5)CN(CC5COC5)Cc5ccccc54)CC3)C2)cc1 (configuration not stated) | 1570 nM | – | 7 nM | –
O=S(=O)(c1ccncc1)c1ccc(N2CC(CN3CCC(C4(C5CCCC5)CNCc5ccccc54)CC3)C2)cc1 (configuration not stated) | 980 nM | – | 1.7 nM | –
N#Cc1ccc(OCCCN2CCC(C3(C4CCCC4)NCCc4ccccc43)CC2)cc1 (configuration not stated) | 1400 nM | – | – | –
O=S(=O)(c1ccccc1)c1ccc(N2CC(CN3CCC(C4(C5CCCC5)NCCc5ccccc54)CC3)C2)cc1 (configuration not stated) | 500 nM | 20 nM | 5.6 nM | –
O=S(=O)(c1ccncc1)c1ccc(N2CC(CN3CCC(C4(C5CCCC5)CN(CC5CC5)Cc5ccccc54)CC3)C2)cc1 (configuration not stated) | 1370 nM | – | 1.4 nM | –
CC(=O)O[C@@H]1CCC[C@H]1[C@](C#N)(c1ccccc1)C1CCN(CC2CN(c3ccc(C#N)cc3)C2)CC1 (relative stereo) | 14300 nM | – | – | –
N#Cc1ccc(N2CC(CN3CCC(C(C#N)(c4ccccc4)C4CCCC4)CC3)C2)cc1 (racemic) | 16900 nM | 3000 nM | 960 nM | –
N#Cc1ccc(N2CCC(CN3CCC(C4(C5CCCC5)NCCc5ccccc54)CC3)C2)cc1 (configuration not stated) | 2400 nM | 88 nM | 27 nM | –
O=S(=O)(c1ccncc1)c1ccc(N2CC(CN3CCC(C4(C5CCCC5)CN(C5CCC5)Cc5ccccc54)CC3)C2)cc1 (configuration not stated) | 900 nM | – | 2 nM | –
O=S(=O)(c1ccncc1)c1ccc(N2CC(CN3CCC(C4(C5CCCC5)CN(CCN5CCOCC5)Cc5ccccc54)CC3)C2)cc1 (configuration not stated) | 1550 nM | – | 2.7 nM | –

Source: ChEMBL document CHEMBL4364283 (J Med Chem, 2019)
